Assay results: publication PMC11845477, “Exploring the principles behind antibiotics with limited resistance” (Nature Communications, 2025)

Assays:
[1] = test system: E. coli ATCC 25922 (SEN) and E. coli NCTC13846 (MDR); assay: Adaptive laboratory evolution (ALE), relative MIC of evolved lines; assay type: cell-based, Escherichia coli; settings: for Relative MIC: ALE
Method in brief: (§1)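 Ten parallel populations per antibiotic–ancestor pair were evolved in MHB at 37 °C, starting near 50% growth-inhibiting drug. Every 72 h they were passaged into 0.5–2.5× increasing concentrations, keeping the highest-drug well with OD600 > 0.2.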

[2] = test system: A. baumannii ATCC 17978 (SEN) and A. baumannii ATCC BAA-1605 (MDR); assay: as above; assay type: cell-based, Acinetobacter baumannii; settings: for Relative MIC: ALE
Method in brief: as §1

POL7306
Relative MIC ([1]; Escherichia coli ATCC 25922 (EC-SEN), evolved line 1): 2
Relative MIC ([1]; Escherichia coli ATCC 25922 (EC-SEN), evolved line 2): 8
Relative MIC ([1]; Escherichia coli ATCC 25922 (EC-SEN), evolved line 3): 4
Relative MIC ([1]; Escherichia coli ATCC 25922 (EC-SEN), evolved line 4): 4
Relative MIC ([1]; Escherichia coli ATCC 25922 (EC-SEN), evolved line 5): 4
Relative MIC ([1]; Escherichia coli ATCC 25922 (EC-SEN), evolved line 6): 4
Relative MIC ([1]; Escherichia coli ATCC 25922 (EC-SEN), evolved line 7): 4
Relative MIC ([1]; Escherichia coli ATCC 25922 (EC-SEN), evolved line 8): 8
Relative MIC ([1]; Escherichia coli ATCC 25922 (EC-SEN), evolved line 9): 8
Relative MIC ([1]; Escherichia coli ATCC 25922 (EC-SEN), evolved line 10): 4
Relative MIC ([1]; Escherichia coli NCTC 13846 (EC-MDR), evolved line 1): 2
Relative MIC ([1]; Escherichia coli NCTC 13846 (EC-MDR), evolved line 2): 1
Relative MIC ([1]; Escherichia coli NCTC 13846 (EC-MDR), evolved line 3): 1
Relative MIC ([1]; Escherichia coli NCTC 13846 (EC-MDR), evolved line 4): 1
Relative MIC ([1]; Escherichia coli NCTC 13846 (EC-MDR), evolved line 5): 1
Relative MIC ([1]; Escherichia coli NCTC 13846 (EC-MDR), evolved line 6): 2
Relative MIC ([1]; Escherichia coli NCTC 13846 (EC-MDR), evolved line 7): 2
Relative MIC ([1]; Escherichia coli NCTC 13846 (EC-MDR), evolved line 8): 4
Relative MIC ([1]; Escherichia coli NCTC 13846 (EC-MDR), evolved line 9): 1
Relative MIC ([1]; Escherichia coli NCTC 13846 (EC-MDR), evolved line 10): 1
Relative MIC ([2]; Acinetobacter baumannii ATCC 17978 (AB-SEN), evolved line 1): 256
Relative MIC ([2]; Acinetobacter baumannii ATCC 17978 (AB-SEN), evolved line 2): 32
Relative MIC ([2]; Acinetobacter baumannii ATCC 17978 (AB-SEN), evolved line 3): 16
Relative MIC ([2]; Acinetobacter baumannii ATCC 17978 (AB-SEN), evolved line 4): 2
Relative MIC ([2]; Acinetobacter baumannii ATCC 17978 (AB-SEN), evolved line 6): 32
Relative MIC ([2]; Acinetobacter baumannii ATCC 17978 (AB-SEN), evolved line 7): 2
Relative MIC ([2]; Acinetobacter baumannii ATCC 17978 (AB-SEN), evolved line 8): 2
Relative MIC ([2]; Acinetobacter baumannii ATCC 17978 (AB-SEN), evolved line 9): 256
Relative MIC ([2]; Acinetobacter baumannii ATCC 17978 (AB-SEN), evolved line 10): 32
Relative MIC ([2]; Acinetobacter baumannii ATCC BAA 1605 (AB-MDR), evolved line 1): 2
Relative MIC ([2]; Acinetobacter baumannii ATCC BAA 1605 (AB-MDR), evolved line 2): 16
Relative MIC ([2]; Acinetobacter baumannii ATCC BAA 1605 (AB-MDR), evolved line 3): 16
Relative MIC ([2]; Acinetobacter baumannii ATCC BAA 1605 (AB-MDR), evolved line 4): 16
Relative MIC ([2]; Acinetobacter baumannii ATCC BAA 1605 (AB-MDR), evolved line 5): 16
Relative MIC ([2]; Acinetobacter baumannii ATCC BAA 1605 (AB-MDR), evolved line 6): 2
Relative MIC ([2]; Acinetobacter baumannii ATCC BAA 1605 (AB-MDR), evolved line 7): 16
Relative MIC ([2]; Acinetobacter baumannii ATCC BAA 1605 (AB-MDR), evolved line 8): 8
Relative MIC ([2]; Acinetobacter baumannii ATCC BAA 1605 (AB-MDR), evolved line 9): 32
Relative MIC ([2]; Acinetobacter baumannii ATCC BAA 1605 (AB-MDR), evolved line 10): 16

polymyxin-B
MIC of evolved line ([1]; EC-MDR NCTC 13846, evolved line 3): 64 µg/mL
MIC of evolved line ([1]; EC-MDR NCTC 13846, evolved line 5): 64 µg/mL
MIC of evolved line ([1]; EC-MDR NCTC 13846, evolved line 6): 64 µg/mL
MIC of evolved line ([1]; EC-MDR NCTC 13846, evolved line 8): 32 µg/mL
MIC of evolved line ([1]; EC-MDR NCTC 13846, evolved line 9): 64 µg/mL
MIC of evolved line ([1]; EC-MDR NCTC 13846, evolved line 10): 64 µg/mL
MIC of evolved line ([1]; EC-SEN (E. coli ATCC 25922), evolved line 1 of the given antibiotic): 64 µg/mL
MIC of evolved line ([1]; EC-SEN (E. coli ATCC 25922), evolved line 3 of the given antibiotic): 64 µg/mL
MIC of evolved line ([1]; EC-SEN (E. coli ATCC 25922), evolved line 7 of the given antibiotic): 64 µg/mL
MIC of evolved line ([1]; EC-SEN (E. coli ATCC 25922), evolved line 9 of the given antibiotic): 64 µg/mL
MIC of evolved line ([2]; AB-MDR ATCC BAA 1605, evolved line 1): 512 µg/mL
MIC of evolved line ([2]; AB-MDR ATCC BAA 1605, evolved line 2): 512 µg/mL
MIC of evolved line ([2]; AB-MDR ATCC BAA 1605, evolved line 3): 256 µg/mL
MIC of evolved line ([2]; AB-MDR ATCC BAA 1605, evolved line 4): 1020 µg/mL
MIC of evolved line ([2]; AB-MDR ATCC BAA 1605, evolved line 5): 1020 µg/mL
MIC of evolved line ([2]; AB-MDR ATCC BAA 1605, evolved line 6): 1020 µg/mL
MIC of evolved line ([2]; AB-MDR ATCC BAA 1605, evolved line 7): 1020 µg/mL
MIC of evolved line ([2]; AB-MDR ATCC BAA 1605, evolved line 8): 1020 µg/mL
MIC of evolved line ([2]; AB-MDR ATCC BAA 1605, evolved line 9): 1020 µg/mL
MIC of evolved line ([2]; AB-MDR ATCC BAA 1605, evolved line 10): 1020 µg/mL
MIC of evolved line ([2]; AB-SEN (A. baumannii ATCC 17978), evolved line 1 of the given antibiotic): 512 µg/mL
MIC of evolved line ([2]; AB-SEN (A. baumannii ATCC 17978), evolved line 2 of the given antibiotic): 512 µg/mL
MIC of evolved line ([2]; AB-SEN (A. baumannii ATCC 17978), evolved line 3 of the given antibiotic): 256 µg/mL
MIC of evolved line ([2]; AB-SEN (A. baumannii ATCC 17978), evolved line 4 of the given antibiotic): 512 µg/mL
MIC of evolved line ([2]; AB-SEN (A. baumannii ATCC 17978), evolved line 5 of the given antibiotic): 512 µg/mL
MIC of evolved line ([2]; AB-SEN (A. baumannii ATCC 17978), evolved line 6 of the given antibiotic): 512 µg/mL
MIC of evolved line ([2]; AB-SEN (A. baumannii ATCC 17978), evolved line 8 of the given antibiotic): 256 µg/mL
MIC of evolved line ([2]; AB-SEN (A. baumannii ATCC 17978), evolved line 9 of the given antibiotic): 256 µg/mL
